A short description of the test: Displacement of [3H]TBOB from GABAA receptor in Sprague-Dawley rat cerebral cortex. It is filed as tissue-based. A general note: In a radioligand displacement assay an active substance lowers the binding of a labelled ligand.
For orientation: IC50 means the concentration that gives 50% inhibition. High values mean a need for much substance, low ones inhibition by little substance. Molecule `CC(=O)[C@H]1CC[C@H]2[C@@H]3CC[C@@H]4C[C@H](O)CC[C@]4(C)[C@H]3CC[C@]12C` [ELTANOLONE] registered an IC50 of 830 nM. The same measure for `CC(=O)[C@H]1CC[C@H]2[C@@H]3CCC4=C[C@H](O)CC[C@@]45CO[C@@H](C[C@]12C)[C@@H]35`: 518 nM. The same measure for `CC(=O)[C@H]1CC[C@H]2[C@@H]3CC[C@H]4C[C@H](O)CC[C@]4(C)[C@H]3CC[C@]12C` [BREXANOLONE]: 329 nM.

In turn, `CC(=O)[C@H]1CC[C@H]2[C@@H]3CC[C@H]4C[C@H](O)C[C@H]5O[C@H](C[C@]12C)[C@@H]3[C@]45C` yielded an IC50 of 741 nM. The value for `CC(=O)[C@H]1CC[C@H]2[C@@H]3CC[C@@H]4C[C@H](O)C[C@@H]5O[C@H](C[C@]12C)[C@@H]3[C@]45C` was 420 nM.

Values taken from ChEMBL document CHEMBL1144001, “Synthesis and GABA(A) receptor activity of oxygen-bridged neurosteroid analogs” (Bioorg Med Chem, 2008).
